Experimental data from patent US20230149326A1, “PHARMACEUTICAL COMPOSITION FOR PREVENTING OR TREATING MUSCULAR WEAKNESS-RELATED DISEASES COMPRISING ALVERINE, 4-HYDROXY ALVERINE, DERIVATIVE THEREOF, OR PHARMACEUTICALLY ACCEPTABLE SALT THEREOF” (AVENTI INC., priority 2020, published 2023).
Structures can show the parent of a compound that is named as a salt.

Key:
C2C12 cells = experiment: Promotion of differentiation of myoblasts (MyHC fluorescent staining); format: cell-based, mouse
Protocol: C2C12 (American Type Culture Collection, CRL-1772™) cells are a myoblast cell line obtained from C3H mouse and is used in myoblast differentiation research. The C2C12 cells were cultured using growth media, and then cultured using differentiation media for differentiation induction. Here, DMEM supplemented with 10% fetal bovine serum was used as growth media (GM), and DMEM supplemented with 5% horse serum (HS) was used as differentiation media (DM). In order to confirm the effect of alverine citrate on promoting the differentiation of myoblasts, C2C12 cells were dispensed in the GM of Example 1.1 and cultured for 24 hours, and then the C2C12 cells were treated with DMSO, insulin, or alverine citrate, and induced for differentiation over 3 days. […] Here, the DMSO, insulin and alverine citrate used in the experiment were all purchased from Sigma-Aldrich. The group treated with insulin was used as the positive control group. In particular, C2C12 cells were dispensed in a 6-well plate treated with the GM of Example 1.1 at a concentration of 5×10^5 cells per plate and after 24 hours, were replaced with DMEM media supplemented with 5% HS and induced for differentiation. Thereafter, the cells were treated with DMSO, insulin (1.72 μM) or alverine citrate (0.01 μM, 0.1 μM, 1 μM or 10 μM). After 3 days, after removing the media, the cells were washed with phosphate buffer solution (1× PBS) and treated with paraformaldehyde (4%) and fixed at room temperature for 15 minutes. Then, after washing three times with phosphate buffer solution (1× PBS), PBS containing 0.3% triton X-100 was treated with permeabilization buffer and allowed to react at room temperature for 10 minutes. After washing three times with phosphate buffer solution (1× PBS), PBST (blocking buffer, PBS containing 0.5% Tween 20) containing 2% bovine serum albumin was administered and allowed to react for 30 minutes to suppress nonspecific binding of antibodies. After washing with phosphate buffer (1× PBS) three times, 100 μL of primary antibodies (SC-20641, Santa Cruz Biotechnology) to MYH3 diluted to 1:500 were added and allowed to react at room temperature for 1 hour. Thereafter, after washing with phosphate buffer (1× PBS) three times, 100 μL of secondary antibodies (Goat anti-Rabbit IgG-HRP) diluted to 1:5,000 were added and allowed to react at room temperature for 1 hour. After 1 hour, for nuclear staining, after washing with phosphate buffer (1× PBS) three times, the blocking buffer was treated with diluted DAPI dye and allowed to react at room temperature for 10 minutes. Thereafter, after washing with phosphate buffer (1× PBS) three times, the washed cover glass was measured for absorbance at a wavelength of 450 nm and a fluorescent image was taken using a fluorescence microscope. The anti-MyHC antibody stained area was analyzed using imageJ (Java-based image processing program). To confirm the effect of 4-hydroxy alverine on promoting myoblast differentiation, following the same method as Example 1, DMSO, insulin (1.72 μM), alverine citrate (0.01 μM, 0.1 μM, 1 μM or 10 μM), 4-hydroxy alverine (0.01 μM, 0.1 μM, 1 μM or 10 μM) were each administered, and differentiation to myotubes and changes in myotube thickness and diameter were observed.

C57BL/6 male mice [1] = experiment: Running ability test (treadmill), normal mouse; format: in vivo; conditions: oral
Protocol: In order to confirm the muscle strength enhancement effect of alverine citrate, after administering alverine citrate to a mouse, the mouse was tested for motor functions such as grip strength, running, balance coordination, and the like. After motor function tests, muscle weight was measured. In particular, each of 10 week-old C57BL/6 male mice was dosed orally with 200 μL of alverine citrate for 4 weeks, at a daily dose of 17 mg/kg/day (AC-L), 50 mg/kg/day (AC-M) or 150 mg/kg/day (AC-H). This group of mice was set as the experimental group (FIG. 3). The 10 week-old C57BL/6 male mice were purchased from Daehan BioLink. Running ability was measured using a treadmill designed specific for this experiment. First, aversive stimuli were provided by letting electric stimuli flow at the starting point. Before the measurement, the mice were acclimatized at 8 m/min for 10 minutes. The running time was recorded by allowing mice in each group to run in separate lanes until exhaustion. Exhaustion was defined such that when the mouse stays outside the lanes for 10 seconds or more without running, the mouse was determined to be exhausted and the time was recorded. It was not possible to repeat this experiment on the same mouse. The mouse was placed on the treadmill and the test was started at 8 rpm, and the speed was accelerated by 2 rpm every 10 minutes to a maximum speed of 20 rpm. […]

C57BL/6 male mice [2] = experiment: Balance coordination test (rota-rod), normal mouse; format: in vivo
Protocol: In order to confirm the muscle strength enhancement effect of alverine citrate, after administering alverine citrate to a mouse, the mouse was tested for motor functions such as grip strength, running, balance coordination, and the like. After motor function tests, muscle weight was measured. In particular, each of 10 week-old C57BL/6 male mice was dosed orally with 200 μL of alverine citrate for 4 weeks, at a daily dose of 17 mg/kg/day (AC-L), 50 mg/kg/day (AC-M) or 150 mg/kg/day (AC-H). This group of mice was set as the experimental group (FIG. 3). The 10 week-old C57BL/6 male mice were purchased from Daehan BioLink. Balance coordination was measured using a rota-rod test. The rota-rod test device consists of 4 test zones, each having a shaft diameter of 3 cm and a lane width of 9 cm, and 5 rotatable circular dividers having a diameter of 60 cm and a round rod. The test was started from a rotating speed of 10 rpm, and the speed was accelerated up to maximum 40 rpm over 5 minutes, and the duration for which the mouse remains inside the rota-rod device, clinging to the round rod without falling, was recorded. The mouse was allowed to rest for 15 minutes after each test and was subjected to three tests in total. An average value of three measurements was calculated.

C57BL/6 male mice [3] = experiment: Muscle weight measurement, normal mouse; format: in vivo
Protocol: In order to confirm the muscle strength enhancement effect of alverine citrate, after administering alverine citrate to a mouse, the mouse was tested for motor functions such as grip strength, running, balance coordination, and the like. After motor function tests, muscle weight was measured. In particular, each of 10 week-old C57BL/6 male mice was dosed orally with 200 μL of alverine citrate for 4 weeks, at a daily dose of 17 mg/kg/day (AC-L), 50 mg/kg/day (AC-M) or 150 mg/kg/day (AC-H). This group of mice was set as the experimental group (FIG. 3). The 10 week-old C57BL/6 male mice were purchased from Daehan BioLink. For muscle weight measurement, gastrocnemius (GA) tibialis anterior (TA) muscles in the hindlimb of the mice in each group were removed and weighed.

[4] = oral, 4 weeks, 17, 50 or 150 mg/kg/day, compared with normal group

Compound: CCN(CCCc1ccccc1)CCCc1ccccc1 [alverine citrate]
- diameter of myotubes (C2C12 cells; as the treatment concentration increases (0.01, 0.1, 1, 10 μM), 3 days): the diameter of myotubes increased
- differentiation of myoblasts to myotubes (C2C12 cells; compared with DMSO alone, 3 days, insulin 1.72 μM, alverine citrate 0.01-10 μM): more differentiated to myotubes
- differentiation of myoblasts to myotubes (C2C12 cells; compared with DMSO or insulin (1.72 μM), 0.01-10 μM): more differentiated to myotubes
- running time (C57BL/6 male mice [1]; 4 weeks, 150 mg/kg/day): significant increase in the running time
- running time (C57BL/6 male mice [1]; 4 weeks, 17, 50 or 150 mg/kg/day, compared with normal group): increased compared to the normal group mouse
- duration clinging to the round rod, dependence on dose (C57BL/6 male mice [2]; as the administration dose increased (17, 50, 150 mg/kg/day)): also increased proportionally
- duration clinging onto the round rod (C57BL/6 male mice [2]; [4]): increased compared to the normal group mouse
- muscle weight of GA and TA, dependence on dose (C57BL/6 male mice [3]; as the administration dose increases (17, 50, 150 mg/kg/day)): also increased
- muscle weight of GA and TA (C57BL/6 male mice [3]; [4]): increased compared to the normal group mouse
